Measurements as given in patent US10617118B2, “Low foam surfactant composition and methods of making the same” (Momentive Performance Materials Inc., priority 2015, dated 2020).

Experiments:
[1] = test system: Velvetleaf (Abutilion theophrasti); assay: Effect of adjuvant on glyphosate-IPA efficacy on velvetleaf (spray application); format: in vivo; conditions: 1.0 wt % Gly-IPA, adjuvant 0.1 wt %, 100 L/ha, simulated rain 2 hours after treatment, visual scale of 0-100%
Method: Velvetleaf plants were grown from seed indoor, under full sunlight intensity lamps, in individual pots, and then thinned to one plant per pot. Plants were fertilized as necessary (NPK 20-20-20). Glyphosate spray applications were applied when the plants reached the 3-4 true leaf stage.
Velvetleaf was treated with 1.0 wt % Gly-IPA, with and without adjuvant, at a spray volume equivalent to 100 L/ha. When adjuvant was used, it was included in the spray at 0.1 wt %. Applications were made using a track sprayer with a TeeJet 8002 nozzle. Simulated rain (2.5 cm) was applied 2 hours after treatment. Glyphosate efficacy was determined 7 and 14 days after treatment (DAT). using a visual scale of 0-100%, where 0 indicates no effect and 100 indicates total weed control.

[2] = Spreading: spread diameter of 10 μL drop on polystyrene Petri-dish; format: physicochemical; conditions: Table 11, after 30 seconds
Method: Spreading was determined using between 0.1% and 0.4% (actives) surfactant. Solutions were prepared in Milli-Pore water (deionized) where a 10 μL drop was placed on a polystyrene surface (Petri-dish) and the spread diameter, in mm is determined after 30 seconds.

Spread Diameter (mm) 0.2 Wt % [2] [mm] | Compound | Glyphosate-IPA efficacy on velvetleaf, 7 DAT ([1]; 7 DAT) [%] | Glyphosate-IPA efficacy on velvetleaf, 14 DAT ([1]; 14 DAT) [%]
 | CC(C)N.O=C(O)CNCP(=O)(O)O [None, glyphosate-isopropylamine] | 33 | 37
7 | Triton X-100 |  | 
